{"source": "patent US9078874B2", "about": "“Composition and method for treating cognitive impairments in down syndrom subjects” (Centre National De La Recherche Scientifique—CNRS, priority 2009, dated 2015)", "key": {"[1]": {"tested_on": "cognitively-normal wildtype rodents", "details": "cited from earlier work"}, "euploid and Ts65Dn mice": {"tested_on": "euploid and Ts65Dn mice", "assay": "Pro-convulsant effects after pentylenetetrazol (45 mg/kg)", "type": "in vivo", "details": "sub-convulsant dose 45 mg/kg i.p.", "experimental": "For testing the pro-convulsant effects of α5IA, a sub-convulsant dose of pentylenetetrazole (45 mg/kg i.p.) that induces myoclonic convulsions in about 50% of mice was injected i.p. 20 min after injection of α5IA (50 mg/kg) or placebo.\nThe proconvulsant action of the α5IA was measured after injection of a subconvulsive dose of pentylenetetrazole. Mice were injected with either vehicle or the α5IA (50 mg/kg i.p) and 20 min later they received an intraperitoneal injection of 45 mg/kg of pentylenetetrazole. […] Six to 7 mice were used for each condition. The latency to the first myoclonic jerk episode and the convulsion grade were recorded during a 1200-s period of observation. Four grades were empirically determined: Grade 0: no effect; grade 1: tail up and curved; grade 2: reversed tail and convulsive shivers; grade 3: myoclonic convulsions.\nWe then tested the proconvulsant effect of α5IA by injecting it (50 mg/kg) 20 min before a sub-convulsant dose of pentylenetetrazol (45 mg/kg) that induces myoclonic convulsions in about 50% of mice."}, "Ts65Dn mice": {"tested_on": "Ts65Dn mice", "details": "mouse, in vivo; cited from earlier work"}, "[2]": {"tested_on": "children with Down syndrome", "details": "7 to 13 year-old children with Down syndrome; even at doses associated with adverse effects; cited from earlier work"}, "[3]": {"details": "in vivo; cited from earlier work"}}, "data": [{"smiles": "CCOC(=O)c1ncn2c1[C@@H]1CCCN1C(=O)c1cc(OC)ccc1-2", "note": "[L-655,708]", "values": [{"measurement": "acquisition in the reference memory water maze test", "setting": "[1]", "value": "can facilitate acquisition"}]}, {"smiles": "C1CCc2nnnn2CC1", "note": "[pentylenetetrazole]", "values": [{"measurement": "acquisition in the reference memory water maze test", "setting": "[1]", "value": "can facilitate acquisition"}, {"measurement": "mice with myoclonic convulsions", "setting": "euploid and Ts65Dn mice", "value": "about 50 % of mice"}, {"measurement": "cognition enhancement effect in treated mice compared to control non-treated mice", "setting": "Ts65Dn mice", "value": "did not show a cognition enhancement effect"}]}, {"smiles": "NC(=O)CN1CCCC1=O", "note": "[piracetam]", "values": [{"measurement": "cognitive and behavioural measures", "setting": "[2]", "value": "neither cognitive nor behavioural measures demonstrated improvement"}]}, {"smiles": "COC(=O)c1cc2c(cn1)[nH]c1ccccc12", "note": "[β-CCM]", "values": [{"measurement": "convulsant liability", "setting": "[3]", "value": "proconvulsant or convulsant"}, {"measurement": "spatial learning in the Morris watermaze", "setting": "[3]", "value": "enhanced spatial learning"}]}]}
